Measured values from ChEMBL document CHEMBL1201862, “PubChem BioAssay data set” (2004).
Blank lines part the entries; values can stand above or below the compound they belong to. Activity calls are given as the source filed them. *1 amine or outer side, *2 acyl side, *3 side chain or, on linkers, in order; H or OH if unused. Where a SMILES comes first, the peptide text is derived from it. Bridges are numbered along the chain shown (N, C = ends). [ ]: non-standard residue; d: D form. ξ: configuration not given here. X1 = CC[C@H](CCC[C@@H](O)[C@@H](C)C(=O)O[C@H](C)[C@@H](C)C/C=C(C)/C(=C\C(=O)[*:1])OC)O[*:2]; NMeξIle = CC[C@H](C)C(NC)C(=O)O; NMeV = CN[C@H](C(=O)O)C(C)C; NMeS = CN[C@@H](CO)C(=O)O

Legend:
Paired box protein Pax-8 = Paired box protein Pax-8 (Homo sapiens, UniProt Q06710); test: inhibitors of PAX8-driven TPO luciferase reporter, dose response, RMG-I cells, cherry-pick (AID 687027); format: functional, cell-based;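 further: luciferase reporter driven by Pax8 target thyroperoxidase promoter measured by SteadyGlo luminescence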
Chain of Paired box protein Pax-8 (Q06710 whole entry): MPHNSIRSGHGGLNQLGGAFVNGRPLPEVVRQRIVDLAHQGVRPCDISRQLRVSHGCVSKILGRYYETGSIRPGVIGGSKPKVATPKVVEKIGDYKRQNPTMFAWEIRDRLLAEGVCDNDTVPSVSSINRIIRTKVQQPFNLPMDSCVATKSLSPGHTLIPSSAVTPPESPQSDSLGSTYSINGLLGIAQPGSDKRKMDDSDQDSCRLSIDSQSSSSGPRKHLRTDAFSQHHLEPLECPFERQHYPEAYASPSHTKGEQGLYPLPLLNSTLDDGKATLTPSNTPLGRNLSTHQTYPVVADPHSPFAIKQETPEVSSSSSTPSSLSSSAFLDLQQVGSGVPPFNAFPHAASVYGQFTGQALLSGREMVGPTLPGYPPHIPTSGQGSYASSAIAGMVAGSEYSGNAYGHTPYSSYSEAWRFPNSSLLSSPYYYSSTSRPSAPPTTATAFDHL

[1] = Shn3 3'UTR reporter inhibitors, dose response, cell-based, Clone20 osteoblasts, firefly luciferase, cherry-picked (AID 624132); format: functional;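 further: firefly luciferase luminescence from reporter carrying the Shn3 3'UTR in osteoblasts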
Protein skinhead-1 = biological target: T1, Protein skinhead-1 (Caenorhabditis elegans, UniProt P34707); format: functional
T1 sequence (P34707 whole entry): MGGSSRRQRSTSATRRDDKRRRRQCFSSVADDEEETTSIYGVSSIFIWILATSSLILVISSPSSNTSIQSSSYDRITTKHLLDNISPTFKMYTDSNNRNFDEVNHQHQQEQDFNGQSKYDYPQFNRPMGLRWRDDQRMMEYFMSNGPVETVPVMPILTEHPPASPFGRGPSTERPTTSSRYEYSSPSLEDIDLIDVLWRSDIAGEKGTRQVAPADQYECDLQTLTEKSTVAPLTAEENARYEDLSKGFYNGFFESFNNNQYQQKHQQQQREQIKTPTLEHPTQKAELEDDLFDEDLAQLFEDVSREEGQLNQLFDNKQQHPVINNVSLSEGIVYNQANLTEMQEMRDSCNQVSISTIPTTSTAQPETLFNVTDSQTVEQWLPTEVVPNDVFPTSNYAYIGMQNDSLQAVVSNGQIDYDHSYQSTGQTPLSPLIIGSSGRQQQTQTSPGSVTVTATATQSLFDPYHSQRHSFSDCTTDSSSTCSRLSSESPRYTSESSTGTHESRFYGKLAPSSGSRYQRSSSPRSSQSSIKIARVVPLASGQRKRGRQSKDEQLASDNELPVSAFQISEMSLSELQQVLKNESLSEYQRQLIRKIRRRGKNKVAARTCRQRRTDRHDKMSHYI

cells = format: functional, cell-based; conditions: HEK-CNG
Galanin receptor type 3 = Galanin receptor type 3 (Homo sapiens, UniProt O60755); test: Fluorescence-based cell-based primary high throughput dose response assay to identify antagonists of the Galanin Receptor 3 (GalR3).; format: functional
Chain of Galanin receptor type 3 (O60755 whole entry): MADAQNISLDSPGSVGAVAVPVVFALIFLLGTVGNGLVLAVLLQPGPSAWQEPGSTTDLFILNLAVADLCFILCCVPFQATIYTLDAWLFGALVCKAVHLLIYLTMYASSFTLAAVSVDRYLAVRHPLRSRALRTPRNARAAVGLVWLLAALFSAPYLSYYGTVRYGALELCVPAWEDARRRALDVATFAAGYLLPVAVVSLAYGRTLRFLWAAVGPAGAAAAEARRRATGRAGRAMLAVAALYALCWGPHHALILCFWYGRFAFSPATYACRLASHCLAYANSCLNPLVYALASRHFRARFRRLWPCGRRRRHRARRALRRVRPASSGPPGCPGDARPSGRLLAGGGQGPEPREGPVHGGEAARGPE

[2] = control 3'UTR Renilla luciferase suppression, dose response, counter-screen for Shn3 inhibitor project, cell-based, Clone20-Shn3RL, cherry-picked (AID 624133); format: functional
[3] = NIH/3T3 fibroblast cytotoxicity, dose response, cytotoxicity control for T. cruzi growth inhibitor project, cell-based, cherry-pick samples, set 2 (AID 651817); format: functional; conditions: NIH3T3
[4] = intracellular Trypanosoma cruzi inhibitors in host cells – cell-based, plate reader, cherry-pick samples, set 3, dose response (AID 651818); format: functional;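 further: compounds incubated with infected cells for about four days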
[5] = biological target: T2, Methionyl-tRNA synthetase, putative (Trypanosoma brucei brucei, UniProt Q38C91); format: functional, Trypanosoma brucei brucei strain 927/4 GUTat10.1
T2 sequence (Q38C91 whole entry, the tested form may be a part): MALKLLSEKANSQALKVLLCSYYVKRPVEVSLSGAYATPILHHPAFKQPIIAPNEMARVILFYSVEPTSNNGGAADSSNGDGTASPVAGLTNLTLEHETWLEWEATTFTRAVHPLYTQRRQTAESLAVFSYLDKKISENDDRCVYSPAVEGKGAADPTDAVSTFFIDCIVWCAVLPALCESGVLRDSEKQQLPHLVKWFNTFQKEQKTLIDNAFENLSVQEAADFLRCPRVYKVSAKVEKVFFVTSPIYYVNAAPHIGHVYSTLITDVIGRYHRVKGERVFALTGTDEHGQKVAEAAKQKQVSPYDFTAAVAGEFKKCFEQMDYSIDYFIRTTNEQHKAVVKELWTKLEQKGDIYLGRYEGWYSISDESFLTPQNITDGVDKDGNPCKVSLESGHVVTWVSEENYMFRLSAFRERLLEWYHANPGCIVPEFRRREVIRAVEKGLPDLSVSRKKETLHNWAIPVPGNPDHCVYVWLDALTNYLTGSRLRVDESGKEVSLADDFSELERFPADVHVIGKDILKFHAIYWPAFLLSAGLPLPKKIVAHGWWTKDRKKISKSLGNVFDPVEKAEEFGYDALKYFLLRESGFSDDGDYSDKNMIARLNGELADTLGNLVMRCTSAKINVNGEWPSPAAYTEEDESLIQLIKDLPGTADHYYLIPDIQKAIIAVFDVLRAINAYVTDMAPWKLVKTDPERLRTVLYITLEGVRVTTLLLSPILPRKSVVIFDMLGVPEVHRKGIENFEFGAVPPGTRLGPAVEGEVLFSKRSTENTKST

[6] = biological target: T3, Carboxy-terminal domain RNA polymerase II polypeptide A small phosphatase 1 (Homo sapiens, UniProt Q9GZU7); test: inhibitors of CTDSP1, concentration-response testing, biochemical assay, absorbance-based, actives from ultra-high-throughput screening (AID 540297); format: functional
T3 sequence (Q9GZU7 whole entry): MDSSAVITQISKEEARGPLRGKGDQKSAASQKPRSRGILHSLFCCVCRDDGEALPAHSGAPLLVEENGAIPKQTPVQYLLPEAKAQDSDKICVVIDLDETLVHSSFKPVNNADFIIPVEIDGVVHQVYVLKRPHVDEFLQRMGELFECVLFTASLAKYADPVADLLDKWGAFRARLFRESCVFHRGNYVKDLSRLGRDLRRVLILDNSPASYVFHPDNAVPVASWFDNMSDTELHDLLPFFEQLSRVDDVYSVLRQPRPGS

[7] = biological target: T2, Methionyl-tRNA synthetase, putative; format: functional, Trypanosoma brucei brucei strain 927/4 GUTat10.1; remark: listed apart in the source
[8] = Counterscreen for inhibitors of Trypanosoma brucei methionyl tRNA synthetase (MetRS): Luminescence-based cell-based high throughput dose response assay to identify compounds that are cytotoxic to Jurkat human T lymphocyte cells.; format: functional
[9] = biological target: T4, Sentrin-specific protease 8 (Homo sapiens, UniProt Q96LD8); format: functional
T4 sequence (Q96LD8 whole entry): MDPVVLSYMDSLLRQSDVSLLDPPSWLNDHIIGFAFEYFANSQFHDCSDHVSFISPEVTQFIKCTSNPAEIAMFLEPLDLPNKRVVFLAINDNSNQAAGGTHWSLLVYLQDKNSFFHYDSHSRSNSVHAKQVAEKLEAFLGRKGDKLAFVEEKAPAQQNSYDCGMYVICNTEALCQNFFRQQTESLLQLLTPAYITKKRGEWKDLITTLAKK

Caspase-3 = biological target: T5, Caspase-3 (Homo sapiens, UniProt P42574); test: Dose-response confirmation of uHTS inhibitor hits of Sentrin-Specific Protease 8 in a Caspase-3 Fluorescence assay.; format: functional
T5 sequence (P42574 whole entry): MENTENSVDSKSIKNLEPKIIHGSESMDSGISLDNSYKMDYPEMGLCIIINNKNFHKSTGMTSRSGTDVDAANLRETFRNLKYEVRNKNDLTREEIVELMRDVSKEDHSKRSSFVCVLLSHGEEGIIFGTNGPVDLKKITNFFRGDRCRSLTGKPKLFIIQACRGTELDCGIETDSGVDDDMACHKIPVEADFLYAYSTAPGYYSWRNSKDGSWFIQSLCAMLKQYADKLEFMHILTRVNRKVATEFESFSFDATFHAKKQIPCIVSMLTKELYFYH

[10] = biological target: T4, Sentrin-specific protease 8; format: functional; remark: listed apart in the source
A549 = test: A549 cell toxicity, dose response, cytotoxicity control, plate reader, cherry-pick samples (AID 687028); format: functional, cell-based; conditions: Homo sapiens
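Wherever EC50 is given: target is galanin receptor GalR3 read with a cAMP biosensor in HEK293 cells.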

SMILES: CC[C@@H]1CCC[C@@H](O)[C@@H](C)C(=O)O[C@H](C)[C@@H](C)C/C=C(C)/C(OC)=C\C(=O)N(C)C([C@@H](C)CC)C(=O)N(C)[C@@H](C(C)C)C(=O)N(C)[C@@H](COC)C(=O)N2CCC[C@H]2C(=O)N(C)[C@@H](C(C)C)C(=O)N2CCC[C@H]2C(=O)O1 (stereo partly specified) ([NMeξIle][NMeV][NMeS](Me)P[NMeV]P; linker N-C via X1)
AC50 (Paired box protein Pax-8): < 0.26 µM (active) | AC50 [1]: < 0.26 µM (active) | IC50 (Protein skinhead-1): 57.6 µM (inactive) | EC50 (cells): > 29.9 µM (inactive) | IC50 (Galanin receptor type 3): 0.0171 µM (active) | AC50 [2]: 0.317 µM (active)

SMILES: Cc1ccc(S(=O)(=O)N(C)C[C@H]2Oc3ccc(NS(=O)(=O)c4ccc(Cl)cc4)cc3CC(=O)N([C@H](C)CO)C[C@H]2C)cc1
AC50 [3]: 39 µM (inactive) | AC50 [4]: 2.35 µM (active)

SMILES: COc1ccc(CNC(=O)CSc2n[nH]c3c4cc(OC)ccc4nc-3n2)cc1
IC50 [5]: 76.2 µM (inactive) | IC50 [6]: 8.05 µM (active) | IC50 [7]: 71.6 µM (inactive) | IC50 [8]: 83.3 µM (inactive)

IC50 (Caspase-3): 32 µM (active)
SMILES: COc1cccc(-c2cc(C(=O)N3CCc4ccccc4C3)no2)c1
IC50 [9]: 46 µM (active) | IC50 [10]: 7.7 µM (active)

SMILES: COc1ccc(S(=O)(=O)Nc2ccc3c(c2)C(=O)N([C@@H](C)CO)C[C@H](C)[C@H](CN(C)C(=O)Nc2ccc(C(F)(F)F)cc2)OCCCC[C@H](C)O3)cc1
AC50 (A549): 24.9 µM (active)
